# From US7709454B2, “Methods and compositions for inhibiting tumorigenesis” (New York University, priority 1997, dated 2010)
# Read-outs that look alike come from different tables or passages of the source.
# Legend:
# [1] = test system: Nude Harlan Sprague-Dawley Mice/lung (A-549, Calu-1) tumors; settings: cited from earlier work
# A/J mice lung adenomas = settings: 50 mg/kg/d; cited from earlier work
# Glioma cell lines = settings: cited from earlier work
# [2] = test system: SCID mice/melanoma (518A2, 607B); settings: cited from earlier work
# Rat-1 cells = settings: cited from earlier work
# [3] = test system: Human melanoma cell lines; settings: cited from earlier work
# [4] = test system: Various human tumor cell lines; settings: cited from earlier work
# [5] = test system: Athymic mice/colon (DLD-1), H-Ras and K-Ras Fibroblast tumors; settings: 10, 50 mg/kg/d; cited from earlier work
# [6] = test system: Nude mice/colon (DLD-1, HCT 116); settings: 2, 5, 10, 40 mg/kg/d; cited from earlier work
# Colon (HCT116) = settings: 40 mg/kg/d; cited from earlier work
# Urinary bladder (EJ) = settings: 40 mg/kg/d; cited from earlier work
# Prostate (DU-145) = settings: 40 mg/kg/d; cited from earlier work
# [7] = test system: Wap-H-RAS transgenic Mice/mammary, salivary tumors; settings: 2, 5, 10, 40 mg/kg/d; cited from earlier work
# Pancreas (AsPC-1) = settings: 40 mg/kg/d; cited from earlier work
# Pancreas (HPAF-11) = settings: 40 mg/kg/d; cited from earlier work
# Nude mice/lung (A549) = settings: 40 mg/kg/d; cited from earlier work
# NIH3T3 = settings: 2, 5, 10, 40 mg/kg/d; cited from earlier work
# Pancreas (MIA PaCa-2) = settings: cited from earlier work
# Pancreas (Hs 700T) = settings: 40 mg/kg/d; cited from earlier work
# Nude mice/colon (DLD-1) = settings: 40 mg/kg/d; cited from earlier work
# Nude mice/lung (HTB177) = settings: 40 mg/kg/d; cited from earlier work
# GLI1 and PTCH1 mRNA = experiment: qPCR of GLI1 and PTCH1 mRNA after MEK-1 or AKT inhibitors; type: cell-based, human; settings: 4 h after treatment
# Procedure: Real-time quantitative PCR amplifications with different primers were carried out at 60° C. on an Opticon machine (MJ Research) using iQTM SYBR Green supermix (Biorad) and values calculated using the standard curve method. Human primer sequences were 5'→3': […] NO: 5) and […] NO: 6); […] NO: 11) and […] NO: 41) and NRAS-R: […] NO: 44); […] NO: 33) and […] NO: 34). For mice: […] NO: 45) and […] NO: 46); Sufu-[…] NO: 47) and Sufu-[…] NO: 48); […] NO: 49) and […] NO: 50); Tyrosinase-[…] NO: 51) and Tyrosinase-[…] NO: 53) and […] NO: 54); […] NO: 55) and […] NO: 56). […] Promega), and AKT (SH6; […] […] Control siRNA: […] […] Proc. Natl. Acad. Sci. USA.
# GLI1 = experiment: localization of transfected GLI1 in COS7 cells (Example 2); type: cell-based, monkey; settings: inhibitors for 1 h
# Procedure: (§1) Forskolin (FK) and 1,9-dideoxyforskolin (ddFK; Sigma) were used at 50 μM. MEK-1 (U0126; Promega), and AKT (SH6; Alexis corporation) inhibitors were used at 1 and 40 μM, respectively, dissolved in DMSO. U0126 and SH6 were used for 1 h, 48 h post-transfection. Leptomycin B (LMB; Sigma) was used at 5 nM for 6 h, 48 h post-transfection. BrdU (Sigma) was pulsed at 4 μg/ml for 2 h before fixation followed by immunodetection with anti-BrdU antibodies (BD Biosciences). The number of viable cells was assessed by Trypan blue exclusion (Promega). […] (SEQ ID NO: 57) (target-validated from Ambion). […] SEQ ID NO: 58) (Sanchez, P. et al. Inhibition of prostate cancer proliferation by interference with SONIC HEDGEHOG-GLI1 signaling. Proc. Natl. Acad. Sci. USA. 101, 12561-12566 (2004)). siRNA transfections (0.2 μM) were performed with Oligofectamine (Invitrogen) for 48 h.
# Cells were transfected (3 μg/p35 plate) with myc-tagged full-length CMV expression vectors with FUGENE (Roche). […]
# SK-Mel2 cells = experiment: Propidium iodide FACS analyses; type: cell-based, human; settings: 24 h, compared to DMSO-treated cells
# [8] = test system: Human GLI3Rep (GLI3C′ΔCla1); experiment: localization of myc-tagged GLI proteins in transfected COS-7 cells; type: cell-based; settings: GLI3Rep+RAS*+inhibitor, 1 hr
# Procedure: (§2) Cells were transfected (3 μg/p35 plate) with myc-tagged full-length CMV expression vectors for human GLI1 (Lee, J., Platt, K. A., Censullo, P. & Ruiz i Altaba, A. Gli1 is a target of Sonic hedgehog that induces ventral neural tube development. Development 124, 2537-2552 (1997)), HRAS-V12 (kindly provided by Dr. A. Pellicer, NYU) and LacZ with FUGENE (Roche). For selection, SK-MEL-2 and MeWo cells were transfected (4 μg/p60 plate) with PGK-neo and CMV-eGFP alone or in a 1/1/8 ratio with HRAS-12G, GLI3C′ΔClaI (Ruiz i Altaba 1999) or (frog) fGli2C′Δ (Ruiz i Altaba 1999), or in a 1/1/4/4 ratio with HRAS-12G/GLI3C′ΔClaI or HRAS-12G/fGli2C′Δ. After Geneticin (400 μg/ml, Gibco) selection for 20 days, colonies were stained with 0.5% crystal violet. Colony size was measured in duplicate dishes in three independent experiments. For subcellular localization, pCS2-Myc frog Gli2, […], human GLI3 and human GLI3C′ΔCla1 (Ruiz i Altaba, 1999) were transfected into COS-7 (ATCC) cells with our without HRAS (V12).
# Frog Gli2 = experiment: as above; type: cell-based; settings: Gli2+RAS*+inhibitor, 1 hr
# Procedure: as §2
# [9] = test system: frog GLI1, frog Gli2, human GLI3 proteins; experiment: localization of Myc-tagged GLI proteins in transfected COS7 cells; type: cell-based
# Procedure: as §2
# [10] = test system: GLI1, PTCH1, BMI1, FOXM1, MITFM expression; experiment: qPCR gene expression in melanoma cultures; type: cell-based, human; settings: 4 h after inhibitor; all cultures
# Procedure: Real-time quantitative PCR amplifications with different primers (Suppl. Materials) were carried out at 60° C. on an Opticon machine (MJ Research) using iQ™ SYBR Green supermix (Biorad) and values calculated using the standard curve method.
# (§3) Commercial N-SHH (R&D Systems) was used at 100 nM. 5E1 anti-SHH blocking antibody (Hybridoma Bank, University of Iowa) was used at 10 μg/ml. Forskolin (FK) and 1,9-dideoxyforskolin (ddFK; Sigma) were used at 50 μM. […] MEK-1 (U0126; Promega), EGFR (AG1478; Biosource) and AKT (SH6; Alexis corporation) inhibitors were used at 1, 10, and 40 μM, respectively, dissolved in DMSO. Drug treatments were for 48 h in 2.5% serum. BrdU (Sigma) was pulsed at 4 μg/ml for 2 h before fixation followed by immunodetection with anti-BrdU antibodies (BD Biosciences). The number of viable cells was assessed by Trypan blue exclusion (Promega).
# [11] = test system: human melanoma primary cultures and cell lines; experiment: BrdU incorporation in melanoma primary cultures and cell lines; type: cell-based; settings: 48 h; all four melanoma cell lines tested and Me-3
# Procedure: Human foreskin melanocytes (Promocell) were grown in serum-free M2 medium (Promocell). WM-115, SK-MEL-2, SK-MEL-5, MeWo and COS7 cell lines (ATCC) were grown as specified. Tumors were chopped, incubated in E-MEM (Sigma) containing collagenase A (300 U/ml, Worthington) and hyaluronidase (100 U/ml, Sigma), mechanically dissociated and plated in E-MEM with 10% FBS, 1 mM sodium pyruvate (GIBCO) and 1 ng/ml EGF (GIBCO). […] All melanoma samples and BCC were obtained following approved protocols.
# as §3
# Me-3, SK-Mel2 and WM-115 = experiment: BrdU incorporation after MEK1 or AKT inhibitors (Example 2); type: cell-based, human; settings: 48 h
# Procedure: WM-115, SK-MEL-2 and COS7 cell lines (ATCC) were grown according to the specifications of the provider. The primary Me-3 melanoma (Stecca, B. et al. Melanocyte proliferation and melanoma growth, recurrence and metastasis require sustained SONIC HEDGEHOG-GLI signaling. Submitted. (2006)) was grown in E-MEM with 10% FBS (Hyclone), 1 mM sodium pyruvate (GIBCO) and 1 ng/ml EGF (GIBCO). Proliferating human melanocytes from foreskin (Promocell) were grown in M2 media (Promocell). Melanomas from ±6 month-old Tyr→NRAS^Q61K; Ink4a^−/− mice on a light coat color Dct^−/− background^13 were collected from the skin and lymph nodes. Tumors were dissociated and grown in E-MEM with 10% FBS, 1 mM sodium pyruvate (GIBCO) and 1 ng/ml EGF (GIBCO). Mouse embryonic fibroblasts (MEFs) were prepared from E14.5 Swiss Webster mouse embryos and grown in DMEM with 10% FBS.
# Forskolin (FK) and 1,9-dideoxyforskolin (ddFK; Sigma) were used at 50 μM. MEK-1 (U0126; Promega), and AKT (SH6; Alexis corporation) inhibitors were used at 1 and 40 μM, respectively, dissolved in DMSO. U0126 and SH6 were used for 1 h, 48 h post-transfection. Leptomycin B (LMB; Sigma) was used at 5 nM for 6 h, 48 h post-transfection. BrdU (Sigma) was pulsed at 4 μg/ml for 2 h before fixation followed by immunodetection with anti-BrdU antibodies (BD Biosciences). The number of viable cells was assessed by Trypan blue exclusion (Promega). […]
# GLI1, GLI3, GLI3R = experiment: localization of transfected GLI proteins in SK-Mel2 cells; type: cell-based, human
# Procedure: as §1
# Cells were transfected (3 μg/p35 plate) with myc-tagged full-length CMV expression vectors with FUGENE (Roche). Transfections were at equimolar amounts unless otherwise specified with combinations of pCS2-Myc-tagged human GLI1, GLI3, GLI3R (GLI3C′ΔClaI), frog Gli2R (Gli2C′) (Ruiz i Altaba, A. Gli proteins encode context-dependent positive and negative functions: implications for development and disease. Development 126, 3205-3216 (1999), pCMV-HA-tagged GLI1 (ref. 20), HRAS^V12G (from A. Pellicer), NRAS^Q61K (Ackermann, J. et al. Metastasizing melanoma formation caused by expression of activated N-RasQ61K on an INK4a-deficient background. Cancer Res. 65, 4005-4011 (2005)), activated (myristoylated) myc-tagged AKT1 (Upstate), activated MEK1 (p45MAPKK^S222D; from J. Pouyssegur), Myc-tagged SUFUH (Kogerman, P. et al. Mammalian suppressor-of-fused modulates nuclear-cytoplasmic shuttling of Gli-1. Nat Cell Biol. 1, 312-319 (1999)), and pCMV-eGFP or pCMV-lacZ.
# all forms of MEK = settings: cited from earlier work
# [12] = test system: GLI1-transfected WM-115, SK-MEL-2 and SK-MEL-5; experiment: GLI1-transfection enhanced BrdU incorporation, treatment with inhibitors; type: cell-based, human; settings: 48 h treatment
# Procedure: as §3
smiles,measurement,setting,value
CSCC[C@H](NC(=O)c1ccc(NC[C@@H](N)CS)cc1-c1ccccc1)C(=O)O [FTI-276],GROWTH INHIBITION,[1]; 70 mg/kg/d,70%-94%
same,GROWTH INHIBITION,"[1]; 10, 50, 100 mg/kg/d",75%
same,GROWTH INHIBITION,A/J mice lung adenomas,58%
COC(=O)[C@H](CCSC)NC(=O)c1ccc(NC[C@@H](N)CS)cc1-c1ccccc1 [FTI-277],GROWTH INHIBITION,"[1]; 50 mg/kg/d, lung (A-549, Calu-1) tumors, NIH3T3",80%
same,IC50,Glioma cell lines,2 to 15.5 µM
"CC(C)=CCC/C(C)=C/CC/C(C)=C/CSc1ccccc1C(=O)O [FTS, S-farnesylthiosalicyclic acid]",GROWTH INHIBITION,[2]; 5 mg/kg/d,82-90% of controls
same,growth of human melanoma in SCID mice,"[2]; mouse, in vivo",significant reduction in the growth
same,IC50,Rat-1 cells,30 to 40 µM
same,IC50,[3],100 µM
O=C(Cc1ccncc1)N1CCC(=C2c3ccc(Cl)cc3CCc3cccnc32)CC1 [SCH44342],IC50,[4],1000 nM
O=C(Cc1cc[n+]([O-])cc1)N1CCN(C2c3ccc(Cl)cc3CCc3cc(Br)cnc32)CC1 (stereo not shown) [SCH59228],GROWTH INHIBITION,[5],>90%
NC(=O)N1CCC(CC(=O)N2CCC([C@H]3c4ncc(Br)cc4CCc4cc(Cl)cc(Br)c43)CC2)CC1 [SCH66336],GROWTH INHIBITION,[6],76%
same,GROWTH INHIBITION,Colon (HCT116),84%
same,GROWTH INHIBITION,Urinary bladder (EJ),100%
same,GROWTH INHIBITION,Prostate (DU-145),86%
same,GROWTH INHIBITION,[7],67%-86%
same,GROWTH INHIBITION,Pancreas (AsPC-1),72%
same,GROWTH INHIBITION,Pancreas (HPAF-11),67%
same,GROWTH INHIBITION,Nude mice/lung (A549),70%
same,GROWTH INHIBITION,NIH3T3,100%
same,GROWTH INHIBITION,"Pancreas (MIA PaCa-2); 40 mg/kg/d, MIA PaCa-2",78%
same,GROWTH INHIBITION,"Pancreas (MIA PaCa-2); 2, 5, 10, 40 mg/kg/d",75%
same,GROWTH INHIBITION,Pancreas (Hs 700T),67%
same,GROWTH INHIBITION,Nude mice/colon (DLD-1),76%
same,GROWTH INHIBITION,Nude mice/lung (HTB177),83%
"N#CC(=C(N)Sc1ccccc1N)C(C#N)=C(N)Sc1ccccc1N [U0126, 1,4-diamino-2,3-dicyano-1,4-bis[2-aminophenylthio]butadiene]",GLI1 and PTCH1 mRNA levels,GLI1 and PTCH1 mRNA,rapid reduction of GLI1 and PTCH1 mRNA levels
same,effect on oncogenic RAS-induced nuclear accumulation of GLI1,GLI1,reversed
same,decrease in the number of dividing cells (S/G2/M),SK-Mel2 cells,30%
same,cells with cytoplasmic (c) localization,[8],1%
same,cells with cytoplasmic (c) localization,Frog Gli2,30%
same,localization of transfected GLI proteins without co-transfected RAS,[9],did not change the localization
same,effect on RAS-enhanced nuclear accumulation of GLI proteins,"[9]; treatment for 1 h, 24 h after transfection",reversed
same,GLI1 and PTCH1 levels,[10],reduction of GLI1 and PTCH1 levels
same,BrdU incorporation,[11],decreased BrdU incorporation
same,BrdU incorporation,"Me-3, SK-Mel2 and WM-115",decreased BrdU incorporation
same,localization of the constitutively nuclear GLI3R,"GLI1, GLI3, GLI3R",no effect
same,localization of GLI1,"GLI1, GLI3, GLI3R; inhibitors for 1 h",increasing cytoplasmic localization of GLI1
same,localization of GLI3,"GLI1, GLI3, GLI3R; inhibitors for 1 h",unaffected
same,higher affinity than PD 098059,all forms of MEK,44- to 357 fold
same,effect on GLI1-enhanced proliferation,[12],reversed
